Reference: patent US12091402B2 (Avilar Therapeutics, Inc., priority 2021, dated 2024)
Where two headings read alike, the source gives them in different places.

What was measured:
HepG2 cells = test: Cellular uptake assay of AF488-labeled antibody (HepG2); assay type: cell-based
Procedure: The cellular uptake assay is designed to measure compound-mediated cellular uptake of fluorescently labeled antibody following ternary complex formation with the ASGPR receptor and endocytosis of the entire complex into cells.
Human IgG (Sigma-Aldrich, 14506) was covalently labeled with Alexa Fluor 488 using the Alexa Fluor™ 488 Protein Labeling Kit (Thermo Fisher, A10235) following the manufacturer's instructions. HepG2 cells were plated in DMEM supplemented with 10% FBS at 5,000 cells per well in a 96-well microtiter plate and incubated for approximately 18 hours at 37° C./5% CO2. For studies using human IgG, 100 nM AF488-labeled human IgG antibodies and serial dilutions of IgG-based degrader (0.1% DMSO final concentration) were added to the cells and the mixture was incubated at 37° C. for 6 hours. For studies using DNP, 100 nM AF488-labeled DNP antibodies and serial dilutions of DNP-based degrader (0.1% DMSO final concentration) were added to the cells and the mixture was incubated at 37° C. for 6 hours. HepG2 cells were fixed in 100% methanol at −20° C. for 20 min, washed 3× with PBS, then stained with DAPI (Thermo, Cat #H3570). HepG2 cells were imaged for DAPI and Alexa Fluor 488 using the Operetta CLS, high-content analysis system (PerkinElmer). Data is presented as the ratio of the number of cells positive for hIgG or DNP (AF-488 fluorescence) over the total cell number (measured by DAPI).

IgG = test: Affinity to IgG by surface plasmon resonance (SPR); assay type: binding
Procedure: Immobilization levels ranging from 1000-1300 resonance units (RU) are obtained. The running buffer is 10 mM HEPES, pH 7.4, 400 mM NaCl, 0.005% P20, […].

[1] = HepG2 cells, 100 nM AF488-labeled antibody, 37° C. for 6 hours, class symbols, read-out: Uptake Assay EC50
[2] = Biacore 8K, 25° C., IgG on CM5 chip, read-out: IgG SPR Binding Kd
[3] = HepG2 cells, read-out: Uptake EC50

SMILES | EC50 (HepG2 cells; [1]) [nM] | Kd (IgG; [2]) [nM] | EC50 (HepG2 cells; [3]) [nM] | Kd (IgG; SPR, read-out: IgG KD) [nM] | other results
CC(C)C[C@@H]1NC(=O)[C@H](Cc2c[nH]cn2)NC(=O)[C@H](Cc2c[nH]c3ccccc23)NC(=O)[C@H](C)NC(=O)[C@@H]2CSSC[C@H](NC(=O)[C@H](Cc3c[nH]c4ccccc34)NC(=O)[C@H](C(C)C)NC(=O)[C@H](CC(C)C)NC(=O)[C@H](CCC(=O)O)NC(=O)CNC1=O)C(=O)N[C@@H]([C@@H](C)O)C(=O)N1CCC[C@@H]1C(=O)N1C[C@@H](NC(=O)CCOCCOCCNC(=O)CCCc3cn(CCCCCC(=O)NC(COCCC(=O)NCCOCCOCCOCCOC[C@@]45CO[C@@H](O4)[C@H](Nc4nc(Cl)ns4)[C@@H](O)[C@H]5O)COCCC(=O)NCCOCCOCCOCCOC[C@@]45CO[C@@H](O4)[C@H](Nc4nc(Cl)ns4)[C@@H](O)[C@H]5O)nn3)C[C@H]1C(=O)N[C@@H](CC(=O)O)C(=O)N2 [Compound 17] | < 100 | < 100 |  |  | 
CC(C)C[C@@H]1NC(=O)[C@H](Cc2c[nH]cn2)NC(=O)[C@H](Cc2c[nH]c3ccccc23)NC(=O)[C@H](C)NC(=O)[C@@H](NC(=O)[C@H](CC(=O)O)NC(=O)CCOCCOCCOCCOCCNC(=O)CCCc2cn(CCCCCC(=O)NC(COCCC(=O)NCCOCCOCCOCCOC[C@H]3OC[C@H](Nc4nccc(C(F)(F)F)n4)[C@@H](O)[C@H]3O)COCCC(=O)NCCOCCOCCOCCOC[C@H]3OC[C@H](Nc4nccc(C(F)(F)F)n4)[C@@H](O)[C@H]3O)nn2)CSSC[C@@H](C(=O)N[C@H](C(N)=O)[C@@H](C)O)NC(=O)[C@H](Cc2c[nH]c3ccccc23)NC(=O)[C@H](C(C)C)NC(=O)[C@H](CC(C)C)NC(=O)[C@H](CCC(=O)O)NC(=O)CNC1=O [Compound 22] |  |  |  |  | EC50 (HepG2 cells; read-out: Uptake Assay EC50): < 100 nM; EC50 (HepG2 cells; read-out: Uptake EC50): < 100 nM; Kd (IgG; read-out: IgG KD): < 100 nM; Kd (IgG; read-out: IgG SPR Binding Kd): < 100 nM
CC(C)C[C@@H]1NC(=O)[C@H](Cc2c[nH]cn2)NC(=O)[C@H](Cc2c[nH]c3ccccc23)NC(=O)[C@H](C)NC(=O)[C@@H]2CSSC[C@H](NC(=O)[C@H](Cc3c[nH]c4ccccc34)NC(=O)[C@H](C(C)C)NC(=O)[C@H](CC(C)C)NC(=O)[C@H](CCC(=O)O)NC(=O)CNC1=O)C(=O)N[C@@H]([C@@H](C)O)C(=O)N1CCC[C@@H]1C(=O)N1C[C@@H](NC(=O)CNC(COCCC(=O)NCCOCCOCCOCCOC[C@H]3OC[C@H](Nc4cncc(C(F)(F)F)n4)[C@@H](O)[C@H]3O)COCCC(=O)NCCOCCOCCOCCOC[C@H]3OC[C@H](Nc4cncc(C(F)(F)F)n4)[C@@H](O)[C@H]3O)C[C@H]1C(=O)N[C@@H](CC(=O)O)C(=O)N2 [Compound 74] |  |  | < 100 | < 100 | 
CC(C)C[C@@H]1NC(=O)[C@H](Cc2cnc[nH]2)NC(=O)[C@H](Cc2c[nH]c3ccccc23)NC(=O)[C@H](C)NC(=O)[C@@H]2CSSC[C@H](NC(=O)[C@H](Cc3c[nH]c4ccccc34)NC(=O)[C@H](C(C)C)NC(=O)[C@H](CC(C)C)NC(=O)[C@H](CCC(=O)O)NC(=O)CNC1=O)C(=O)N[C@@H]([C@@H](C)O)C(=O)N1CCC[C@@H]1C(=O)N1C[C@H](NC(=O)CNC(COCCC(=O)NCCOCCOCCOCCOC[C@H]3OC[C@H](Nc4cncc(C(F)(F)F)n4)[C@@H](O)[C@H]3O)COCCC(=O)NCCOCCOCCOCCOC[C@H]3OC[C@H](Nc4cncc(C(F)(F)F)n4)[C@@H](O)[C@H]3O)C[C@H]1C(=O)N[C@@H](CC(=O)O)C(=O)N2 [Compound 92] |  |  | < 100 | < 100 | 
CC(C)C[C@@H]1NC(=O)[C@H](Cc2c[nH]cn2)NC(=O)[C@H](Cc2c[nH]c3ccccc23)NC(=O)[C@H](C)NC(=O)[C@@H]2CSSC[C@H](NC(=O)[C@H](Cc3c[nH]c4ccccc34)NC(=O)[C@H](C(C)C)NC(=O)[C@H](CC(C)C)NC(=O)[C@H](CCC(=O)O)NC(=O)CNC1=O)C(=O)N[C@@H]([C@@H](C)O)C(=O)N1CCC[C@@H]1C(=O)N1C[C@@H](NC(=O)CCOCCOCCOCCOCCNC(=O)CCCc3cn(C[C@@]45CO[C@@H](O4)[C@H](Nc4nc(Cl)ns4)[C@@H](O)[C@H]5O)nn3)C[C@H]1C(=O)N[C@@H](CC(=O)O)C(=O)N2 [Compound 15] | 100 to 500 | < 100 |  |  | 
